Reference: patent publication US12501899B2, “Mite infestation treatment” (priority 2019, dated 2025)
Where two headings read alike, the source gives them in different places.

Experiments:
Varroa destructor = conditions: 1 μg/μL, 1 μL on bee thorax; time not stated (monitored up to 24 hours)
Experimental: About 300 bees (Apis mellifera) infected with Varroa destructor were taken from a hive superinfected with Varroa destructor. The bees were then placed in a device allowing to detach Varroa mites attached to the bees (device described in Community model n° 003419415-0001) filled with icing sugar. The device was stirred for 2 minutes to sample the Varroa mites attached to the bees. The icing sugar allows to interfere between the bee and the Varroa mite that was attached thereto. Varroa mites were harvested with icing sugar because they pass through the holes in the device, unlike bees. The Varroa mites were then separated from the icing sugar.
The Varroa mites thus recovered were dispatched in boxes (10 Varroa mites per box).
The bees were then dispatched in the boxes (10 per box).
The bees were then put to sleep for a few minutes using CO2 (flow of 3 liters for 20 seconds) in order to deposit 1 μL of compound to be tested on their thorax using a pipette. It should be noted that the bees which received romifidine hydrochloride at a concentration of 10 μg/μL received 2 μL of product. The bees were unconscious for the time the compound to be tested was deposited, that is to say around three minutes, then they woke up.
After thoracic deposition of the compound to be tested, the 10 bees from the same box were transferred to a box containing the 10 Varroa mites (cf. “Preparation of Varroa mites” above). Liquid sugar was left in each of the boxes to feed the bees during the observations. The series of boxes was then placed in an oven at […] with a humidity of 50% in order to approximate hive conditions as closely as possible.
The mortality of Varroa mites and bees was then monitored 5 minutes, 2 hours, 4 hours and 24 hours after application of the compound to be tested to the bees. Dead Varroa mites correspond to Varroa mites detached from the bees. Dead bees correspond to bees which no longer move and which are often placed on their thorax.
The following compositions were applied to the thorax of the bees: • Solvent, • Amitraz at 1 μg/μL in acetone, • Clonidine hydrochloride at 100 μg/μL, 10 μg/μL, 1 μg/μL and 0.1 μg/μL in methanol, • Detomidine hydrochloride monohydrate at 1 μg/μL in methanol, • Dexmedetomidine hydrochloride at 100 μg/μL, 10 μg/μL, 1 μg/μL and 0.1 μg/μL in methanol, • Romifidine hydrochloride at 10 μg/μL and at 5 μg/μL in methanol, • Tizanidine hydrochloride at 1 μg/μL in methanol, • Medetomidine hydrochloride at 0.1 μg/μL in ethanol, • Levomedetomidine hydrochloride at 100 μg/μL, 10 μg/μL, 1 μg/μL and 0.1 μg/μL in methanol, • Octopamine at 1 μg/μL in ethanol. Results

Ixodes ricinus = assay: Oral acaricidal test on ticks in membrane feeding wells with treated blood; format: in vivo; conditions: for average percentage of affected adult ticks (convulsion, morbidity or death of ticks): 100 ppm oral; for mortality at 100 ppm: Ixodes ricinus, po
Experimental: A laboratory study was conducted to determine the oral acaricidal properties of three compounds according to the invention (SN0305, SN0306 and SN0307) against Ixodes ricinus. Each compound was tested at 1, 10 and 100 ppm, and compared to a negative control corresponding to solvent alone (0.1% DMSO). Amitraz at 100 ppm was used as a positive control.
The Ixodes ricinus ticks (nymphs and adults) were placed for 24 hours on a membrane in feeding wells containing blood mixed with the tested compounds. Tick mortality (number of dead, moribund, or unaffected ticks in each well), attachment to the membrane (number of ticks attached/detached in each well), and the behavior (presence or absence of twitches) were examined 1, 3, 6, 12, 24, 48, 72, and 96 hours after the onset of tick exposure to the compounds.
Ticks (Ixodes ricinus) were collected. Collected adult females were kept separate from the nymphs and both were placed in sterile tubes in a humidity chamber to provide ˜80% humidity and 17° C. Only healthy ticks (females/nymphs) were chosen for the experiment.
Batches of 12 adults or nymphs were inserted into the feeding wells. After about 24 hours, their attachment was examined with a brush.
The efficiency of three compounds (SN0305, SN0306 and SN0307), each tested at three concentrations (1, 10, 100 ppm), was compared to the solvent control (0.1% DMSO, Sigma-Aldrich D-5879; Lot 101K0028) and to the positive control (Amitraze at 100 ppm).
Silicone-coated membranes with a thickness comprised between 110 and 140 μm were used for the construction of the feeding units.
Feeding units (sterilized acrylic glass tubes) were placed in feeding wells made of sterilized six-well plates.
3.1 ml of sterile 10^−3 M ATP-enriched blood was applied to each feeding well. Feeding wells were then inserted into a heated water bath (FIG. 12) and maintained at 37° C.±2° C.
Stock solutions of 100,000 ppm were prepared and tenth dilutions were carried out in 0.1% DMSO to reach the desired concentrations. After tick attachment (24 hours after placing the ticks in the feeding wells), 3.1 μl of the solutions were added to each feeding well containing 3.1 ml of blood. Blood was changed after 12 hours with fresh supplementation of the compounds to be tested. The ticks were exposed to the product for a total of 24 hours, after which the blood was again changed to fresh, untreated blood.
Tick mortality (number of dead, moribund or unaffected ticks in each well), attachment (number of attached/detached ticks in each well) and behavior (presence, absence and intensity of convulsions) were examined 1, 3, 6, 12, 24, 48, 72, and 96 hours after the start of tick exposure to the compound.

Structure (SMILES): Cc1ccc(/N=C/N(C)/C=N/c2ccc(C)cc2C)c(C)c1 [Amitraz]
- Varroa mites killed / mortality for Varroa mites (Varroa destructor): 100%
- average percentage of affected adult ticks (convulsion, morbidity or death of ticks) (Ixodes ricinus; adult ticks, 1 h): 66.8%
- average percentage of affected adult ticks (convulsion, morbidity or death of ticks) (Ixodes ricinus; adult ticks, 3 h): 56.2%
- average percentage of affected adult ticks (convulsion, morbidity or death of ticks) (Ixodes ricinus; adult ticks, 6 h): 53.7%
- average percentage of affected adult ticks (convulsion, morbidity or death of ticks) (Ixodes ricinus; adult ticks, 12 h): 56.2%
- average percentage of affected adult ticks (convulsion, morbidity or death of ticks) (Ixodes ricinus; adult ticks, 24 h): 66.5%
- average percentage of affected adult ticks (convulsion, morbidity or death of ticks) (Ixodes ricinus; adult ticks, 48 h): 83.1%
- average percentage of affected adult ticks (convulsion, morbidity or death of ticks) (Ixodes ricinus; adult ticks, 72 h): 100.0%
- average percentage of affected adult ticks (convulsion, morbidity or death of ticks) (Ixodes ricinus; adult ticks, 96 h): 100.0%
- detachment of adult ticks (in words) (Ixodes ricinus; 100 ppm, adult ticks): strong detachment
- average percentage of attached adult ticks (Ixodes ricinus; 100 ppm, adult ticks, 1 h): 66.8%
- average percentage of attached adult ticks (Ixodes ricinus; 100 ppm, adult ticks, 3 h): 56.2%
- average percentage of attached adult ticks (Ixodes ricinus; 100 ppm, adult ticks, 6 h): 53.7%
- average percentage of attached adult ticks (Ixodes ricinus; 100 ppm, adult ticks, 12 h): 53.7%
- average percentage of attached adult ticks (Ixodes ricinus; 100 ppm, adult ticks, 24 h): 53.7%
- average percentage of attached adult ticks (Ixodes ricinus; 100 ppm, adult ticks, 48 h): 53.7%
- average percentage of attached adult ticks (Ixodes ricinus; 100 ppm, adult ticks, 72 h): 53.7%
- average percentage of attached adult ticks (Ixodes ricinus; 100 ppm, adult ticks, 96 h): 53.7%
- effect on nymphs (convulsion, morbidity or death), in words (Ixodes ricinus; 100 ppm, nymphs, compared with SN0305, SN0306, SN0307): comparable result
- mortality at 100 ppm (Ixodes ricinus; adult ticks, 100 ppm, 1 h, read-out: average percentage of adult tick mortality (moribund or dead adult ticks)): 0%
- mortality at 100 ppm (Ixodes ricinus; adult ticks, 100 ppm, 3 h, read-out: average percentage of adult tick mortality (moribund or dead adult ticks)): 2.8%
- mortality at 100 ppm (Ixodes ricinus; adult ticks, 100 ppm, 6 h, read-out: average percentage of adult tick mortality (moribund or dead adult ticks)): 10.1%
- mortality at 100 ppm (Ixodes ricinus; adult ticks, 100 ppm, 12 h, read-out: average percentage of adult tick mortality (moribund or dead adult ticks)): 17.4%
- mortality at 100 ppm (Ixodes ricinus; adult ticks, 100 ppm, 24 h, read-out: average percentage of adult tick mortality (moribund or dead adult ticks)): 27.7%
- mortality at 100 ppm (Ixodes ricinus; adult ticks, 100 ppm, 48 h, read-out: average percentage of adult tick mortality (moribund or dead adult ticks)): 58.9%
- mortality at 100 ppm (Ixodes ricinus; adult ticks, 100 ppm, 72 h, read-out: average percentage of adult tick mortality (moribund or dead adult ticks)): 84.6%
- mortality at 100 ppm (Ixodes ricinus; adult ticks, 100 ppm, 96 h, read-out: average percentage of adult tick mortality (moribund or dead adult ticks)): 97.5%
- mortality at 100 ppm (Ixodes ricinus; nymphs, 100 ppm, 1 h, read-out: average percentage of mortality of tick nymphs (moribund or dead nymphs)): 0%
- mortality at 100 ppm (Ixodes ricinus; nymphs, 100 ppm, 3 h, read-out: average percentage of mortality of tick nymphs (moribund or dead nymphs)): 14%
- mortality at 100 ppm (Ixodes ricinus; nymphs, 100 ppm, 6 h, read-out: average percentage of mortality of tick nymphs (moribund or dead nymphs)): 38.7%
- mortality at 100 ppm (Ixodes ricinus; nymphs, 100 ppm, 12 h, read-out: average percentage of mortality of tick nymphs (moribund or dead nymphs)): 74.9%
- mortality at 100 ppm (Ixodes ricinus; nymphs, 100 ppm, 24 h, read-out: average percentage of mortality of tick nymphs (moribund or dead nymphs)): 100%
- mortality at 100 ppm (Ixodes ricinus; nymphs, 100 ppm, 48 h, read-out: average percentage of mortality of tick nymphs (moribund or dead nymphs)): 100%
- mortality at 100 ppm (Ixodes ricinus; nymphs, 100 ppm, 72 h, read-out: average percentage of mortality of tick nymphs (moribund or dead nymphs)): 100%
- mortality at 100 ppm (Ixodes ricinus; nymphs, 100 ppm, 96 h, read-out: average percentage of mortality of tick nymphs (moribund or dead nymphs)): 100%
